# In PubChem BioAssay (NCI):
#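 A five-concentration, 48-hour dose response in 96-well plates underlies each endpoint, interpolated linearly between surrounding concentrations. Abbreviation: GI50, concentration required for 50% inhibition of growth. TGI marks complete inhibition of growth.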
# Tests used:
# Assay in all cases: NCI-60 cell line screen, 48 h
# RXF 393 renal = system: RXF 393 renal
# A498 renal = system: A498 renal
# IGROV1 ovarian = system: IGROV1 ovarian
# HCT-116 colon = system: HCT-116 colon
# SK-OV-3 ovarian = system: SK-OV-3 ovarian
# UACC-62 melanoma = system: UACC-62 melanoma
# SK-MEL-2 melanoma = system: SK-MEL-2 melanoma
# T-47D breast = system: T-47D breast
# SF-539 CNS = system: SF-539 CNS
# HCC-2998 colon = system: HCC-2998 colon
# KM12 colon = system: KM12 colon
# UACC-257 melanoma = system: UACC-257 melanoma
# OVCAR-4 ovarian = system: OVCAR-4 ovarian
# NCI/ADR-RES ovarian = system: NCI/ADR-RES ovarian
# NCI-H226 lung = system: NCI-H226 lung
# ACHN renal = system: ACHN renal
# UO-31 renal = system: UO-31 renal
# TK-10 renal = system: TK-10 renal
# HCT-15 colon = system: HCT-15 colon
# 786-0 renal = system: 786-0 renal
# SK-MEL-28 melanoma = system: SK-MEL-28 melanoma
# HT29 colon = system: HT29 colon
# RPMI-8226 leukemia = system: RPMI-8226 leukemia
# NCI-H522 lung = system: NCI-H522 lung
# SNB-19 CNS = system: SNB-19 CNS
# MOLT-4 leukemia = system: MOLT-4 leukemia
# SR leukemia = system: SR leukemia
# LOX IMVI melanoma = system: LOX IMVI melanoma
# HOP-62 NSCLC = system: HOP-62 NSCLC
# CCRF-CEM leukemia = system: CCRF-CEM leukemia
# HL-60(TB) leukemia = system: HL-60(TB) leukemia
# SF-268 CNS = system: SF-268 CNS
# DU-145 prostate = system: DU-145 prostate
# SK-MEL-5 melanoma = system: SK-MEL-5 melanoma
# BT-549 breast = system: BT-549 breast
# OVCAR-3 ovarian = system: OVCAR-3 ovarian
# EKVX NSCLC = system: EKVX NSCLC
# OVCAR-5 ovarian = system: OVCAR-5 ovarian
# SNB-75 CNS = system: SNB-75 CNS
# MDA-MB-435 = system: MDA-MB-435
# A549 NSCLC = system: A549 NSCLC
# NCI-H23 lung = system: NCI-H23 lung
# MDA-MB-231 breast = system: MDA-MB-231 breast
# COLO 205 colon = system: COLO 205 colon
# NCI-H460 lung = system: NCI-H460 lung
# SF-295 CNS = system: SF-295 CNS
# SW-620 colon = system: SW-620 colon
# MCF7 breast = system: MCF7 breast
# OVCAR-8 ovarian = system: OVCAR-8 ovarian
# PC-3 prostate = system: PC-3 prostate
# M14 melanoma = system: M14 melanoma
# SN12C renal = system: SN12C renal
# MALME-3M melanoma = system: MALME-3M melanoma
# K-562 leukemia = system: K-562 leukemia
# U251 CNS = system: U251 CNS
compound,measurement,setting,value
O=C1Nc2ccccc2/C1=C\c1nc(-c2ccccc2F)n2ccccc12,GI50,RXF 393 renal,3.14 µM
same,TGI,RXF 393 renal,10.7 µM
same,GI50,A498 renal,2810 nM
same,TGI,A498 renal,11 µM
same,GI50,IGROV1 ovarian,2040 nM
same,TGI,IGROV1 ovarian,12.5 µM
same,GI50,HCT-116 colon,1970 nM
same,TGI,HCT-116 colon,4.04 µM
same,GI50,SK-OV-3 ovarian,3.46 µM
same,TGI,SK-OV-3 ovarian,12.4 µM
same,GI50,UACC-62 melanoma,6.32 µM
same,TGI,UACC-62 melanoma,25.2 µM
same,GI50,SK-MEL-2 melanoma,6.81 µM
same,TGI,SK-MEL-2 melanoma,19.6 µM
same,GI50,T-47D breast,2360 nM
same,TGI,T-47D breast,8.11 µM
same,GI50,SF-539 CNS,3.1 µM
same,TGI,SF-539 CNS,11.1 µM
same,GI50,HCC-2998 colon,55.2 µM
same,TGI,HCC-2998 colon,> 100 µM
same,GI50,KM12 colon,3.49 µM
same,TGI,KM12 colon,14.4 µM
same,GI50,UACC-257 melanoma,5.2 µM
same,TGI,UACC-257 melanoma,18.1 µM
same,GI50,OVCAR-4 ovarian,1810 nM
same,TGI,OVCAR-4 ovarian,4.49 µM
same,GI50,NCI/ADR-RES ovarian,3.36 µM
same,TGI,NCI/ADR-RES ovarian,13.3 µM
same,GI50,NCI-H226 lung,4.78 µM
same,TGI,NCI-H226 lung,21.3 µM
same,GI50,ACHN renal,3.3 µM
same,TGI,ACHN renal,10.9 µM
same,GI50,UO-31 renal,2120 nM
same,TGI,UO-31 renal,10.8 µM
same,GI50,TK-10 renal,4.05 µM
same,TGI,TK-10 renal,14.2 µM
same,GI50,HCT-15 colon,13 µM
same,TGI,HCT-15 colon,> 100 µM
same,GI50,786-0 renal,3.44 µM
same,TGI,786-0 renal,10.1 µM
same,GI50,SK-MEL-28 melanoma,3.71 µM
same,TGI,SK-MEL-28 melanoma,14.6 µM
same,GI50,HT29 colon,3.5 µM
same,TGI,HT29 colon,12.1 µM
same,GI50,RPMI-8226 leukemia,51.4 µM
same,TGI,RPMI-8226 leukemia,> 100 µM
same,GI50,NCI-H522 lung,2180 nM
same,TGI,NCI-H522 lung,7.37 µM
same,GI50,SNB-19 CNS,4.7 µM
same,TGI,SNB-19 CNS,16.7 µM
same,GI50,MOLT-4 leukemia,28.2 µM
same,TGI,MOLT-4 leukemia,> 100 µM
same,GI50,SR leukemia,11 µM
same,TGI,SR leukemia,29.4 µM
same,GI50,LOX IMVI melanoma,4.15 µM
same,TGI,LOX IMVI melanoma,15.6 µM
same,GI50,HOP-62 NSCLC,2370 nM
same,TGI,HOP-62 NSCLC,5.93 µM
same,GI50,CCRF-CEM leukemia,91.1 µM
same,TGI,CCRF-CEM leukemia,> 100 µM
same,GI50,HL-60(TB) leukemia,24.9 µM
same,TGI,HL-60(TB) leukemia,> 100 µM
same,GI50,SF-268 CNS,4.65 µM
same,TGI,SF-268 CNS,18.7 µM
same,GI50,DU-145 prostate,3.26 µM
same,TGI,DU-145 prostate,12.9 µM
same,GI50,SK-MEL-5 melanoma,2800 nM
same,TGI,SK-MEL-5 melanoma,11.4 µM
same,GI50,BT-549 breast,3.37 µM
same,TGI,BT-549 breast,12.9 µM
same,GI50,OVCAR-3 ovarian,1900 nM
same,TGI,OVCAR-3 ovarian,4.38 µM
same,GI50,EKVX NSCLC,10.6 µM
same,TGI,EKVX NSCLC,28.3 µM
same,GI50,OVCAR-5 ovarian,18 µM
same,TGI,OVCAR-5 ovarian,53.5 µM
same,GI50,SNB-75 CNS,1790 nM
same,TGI,SNB-75 CNS,4.95 µM
same,GI50,MDA-MB-435,3.95 µM
same,TGI,MDA-MB-435,16.1 µM
same,GI50,A549 NSCLC,3.46 µM
same,TGI,A549 NSCLC,10.3 µM
same,GI50,NCI-H23 lung,4.55 µM
same,TGI,NCI-H23 lung,17.3 µM
same,GI50,MDA-MB-231 breast,2270 nM
same,TGI,MDA-MB-231 breast,9.07 µM
same,GI50,COLO 205 colon,4.08 µM
same,TGI,COLO 205 colon,14.9 µM
same,GI50,NCI-H460 lung,2170 nM
same,TGI,NCI-H460 lung,5.14 µM
same,GI50,SF-295 CNS,3.68 µM
same,TGI,SF-295 CNS,13.7 µM
same,GI50,SW-620 colon,3.97 µM
same,TGI,SW-620 colon,14.2 µM
same,GI50,MCF7 breast,2100 nM
same,TGI,MCF7 breast,12.2 µM
same,GI50,OVCAR-8 ovarian,2490 nM
same,TGI,OVCAR-8 ovarian,8.12 µM
same,GI50,PC-3 prostate,6.81 µM
same,TGI,PC-3 prostate,26.9 µM
same,GI50,M14 melanoma,5.65 µM
same,TGI,M14 melanoma,17.9 µM
same,GI50,SN12C renal,4.32 µM
same,TGI,SN12C renal,17 µM
same,GI50,MALME-3M melanoma,3.07 µM
same,TGI,MALME-3M melanoma,7.22 µM
same,GI50,K-562 leukemia,6.35 µM
same,TGI,K-562 leukemia,19.7 µM
same,GI50,U251 CNS,2570 nM
same,TGI,U251 CNS,6.1 µM
